Values after ≈ are worked out from the molar mass of the structure shown. *1 amine or outer side, *2 acyl side, *3 side chain or, on linkers, in order; H or OH if unused. Where a SMILES comes first, the peptide text is derived from it. Bridges are numbered along the chain shown (N, C = ends). [ ]: non-standard residue; d: D form. The star is where a group is joined. X1 = CC(C)=CCc1ccc(Cl)c2[nH]cc(CC(N[*:1])C(=O)[*:2])c12; Trp(7-Cl) = N[CH](Cc1c[nH]c2c(Cl)cccc12)C(=O)O; Malonyl = O=C(CC(=O)[*:2])[*:1]; Cya = N[CH](CS(=O)(=O)O)C(=O)O; dDab = NCC[C@@H](N)C(=O)O; Octanoyl = CCCCCCCC(=O)*; Orn = NCCC[C@H](N)C(=O)O; Dab = NCC[C@H](N)C(=O)O

For series [1], the system named is Escherichia coli. Briefly: Antibacterial activity against wild-type Escherichia coli. It counts as functional.
Series [2] relates to Escherichia coli. Briefly: Antibacterial activity against acrAB-efflux pump deficit Escherichia coli. It counts as functional.
Series [3] concerns Pseudomonas aeruginosa. Briefly: Antibacterial activity against wild-type Pseudomonas aeruginosa measured after 16 hrs by serial dilution method. It counts as functional.
The test system of series [4] is Pseudomonas aeruginosa. Briefly: Antibacterial activity against MexABCDXY-deficit Pseudomonas aeruginosa measured after 16 hrs by serial dilution method. It counts as functional.
The test system of series [5] is Escherichia coli. Nature of the series: Antibacterial activity against wild-type Escherichia coli measured after 16 hrs by serial dilution method. The series is classed as functional.
In series [6] the test system is Escherichia coli. Nature of the series: Antibacterial activity against tolC-deficit Escherichia coli measured after 16 hrs by serial dilution method. It counts as functional.
The test system of series [7] is Pseudomonas aeruginosa. Nature of the series: Antibacterial activity against Pseudomonas aeruginosa ATCC 27853 by microdilution method. It counts as functional. A general note: In broth dilution the organism is exposed to a series of concentrations in liquid medium.
Series [8] is described as follows: Inhibition of Escherichia coli LpxA after 15 mins by fluorescence polarization assay. (In general: Polarisation of emitted light reports the rotation of a fluorescent probe.)
A short description of series [9]: Inhibition of Escherichia coli His6-tagged LpxD after 15 mins by fluorescence polarization assay.
Series [10] has as its system Pseudomonas aeruginosa. Briefly: Potentiation of colistin-induced antibacterial activity against Pseudomonas aeruginosa PAO1 infected in BALB/c mouse assessed as log reduction in bacterial burden in lungs at 2.08 mg/kg, it measured after 6 hrs by serial dilution method. The series is classed as functional, Lung.
For series [11], the system named is Escherichia coli. Briefly: Antibacterial activity against Escherichia coli by agar dilution method. The series is classed as functional.
Series [12] relates to Escherichia coli. Briefly: Antibacterial activity against tolC-deficit Escherichia coli in presence of human serum albumin. It counts as functional.
A short description of series [13]: Hemolytic activity against human RBC. The series is classed as ADME, cell-based. The conditions noted are these: erythrocyte.
The subject of series [14] is Staphylococcus epidermidis. Nature of the series: Antibacterial activity against Staphylococcus epidermidis RP62A harboring wild-type SPase by CLSI microbroth dilution method. It counts as functional.
Series [15] has as its system Escherichia coli. Briefly: Antibacterial activity against Escherichia coli PAS0232 harboring SPase P84S mutant by CLSI microbroth dilution assay. It counts as functional.
Series [16] deals with Pseudomonas aeruginosa. Briefly: Antibacterial activity against Pseudomonas aeruginosa PAS2006 harboring SPase P84S mutant by CLSI microbroth dilution assay. The series is classed as functional.
The subject of series [17] is Staphylococcus epidermidis. Briefly: Antibacterial activity against Staphylococcus epidermidis PAS9001 harboring SPase S29P mutant by CLSI microbroth dilution assay. It counts as functional.
In series [18] the test system is Staphylococcus epidermidis. Briefly: Antibacterial activity against Staphylococcus epidermidis PAS8001 harboring SPase P29S mutant by CLSI microbroth dilution method. The series is classed as functional.
A short description of series [19]: Selectivity ratio of MIC for Staphylococcus epidermidis PAS9001 harboring SPase S29P mutant to MIC for Staphylococcus epidermidis RP62A. The series is classed as functional.
In series [20] the test system is Staphylococcus aureus. Briefly: Antibacterial activity against methicillin-resistant Staphylococcus aureus by CLSI broth dilution method. It counts as functional.
Series [21] relates to Escherichia coli. Nature of the series: Antibacterial activity against Escherichia coli after 16 to 20 hrs by agar well diffusion method. The series is classed as functional. In general terms: Agar diffusion results depend on both activity and mobility in agar.
The subject of series [22] is Pseudomonas aeruginosa. Briefly: Antibacterial activity against Pseudomonas aeruginosa PAO1 measured after 16 to 20 hrs by microbroth dilution assay. It counts as functional.
The subject of the next series is Acinetobacter baumannii. Briefly: Antibacterial activity against Acinetobacter baumannii. The series is classed as functional.
For series [23], the system named is Pseudomonas aeruginosa. Nature of the series: Antibacterial activity against Pseudomonas aeruginosa. It counts as functional.
In series [24] the test system is Staphylococcus aureus. Briefly: Antibacterial activity against Staphylococcus aureus. It counts as functional.

As for `CN(C)c1ccc(C2=NCCCN2)c(S)c1`, the minimal inhibitory concentration (MIC) against Escherichia coli [1] was 16 µg/mL (≈ 68 µM); in the series with Escherichia coli [2] it was 8 µg/mL (≈ 34 µM).

As to `N=C(N)SCc1ccc(Cl)c(Cl)c1`, the MIC was 4 µg/mL (≈ 17 µM) with Pseudomonas aeruginosa [3], 1 µg/mL (≈ 4.25 µM) in the series on Pseudomonas aeruginosa [4], more than 32 µg/mL in the series with Escherichia coli [5] and more than 32 µg/mL with Escherichia coli [6].

As to `CC[C@H](C)[C@@H]1NC(=O)[C@H](Cc2c[nH]c3ccccc23)NC(=O)[C@H]([C@@H](C)O)NC(=O)[C@@H]2CCCN2C(=O)[C@H]2CCCN2C(=O)[C@H](CO)NC(=O)[C@H](C)NC(=O)[C@H](CCN)NC(=O)[C@H](CCN)NC(=O)[C@H](Cc2c[nH]c3ccccc23)NC(=O)[C@H](CCN)NC(=O)[C@@H](CCN)NC(=O)[C@H](CCCN)NC(=O)[C@H](CCN)NC1=O` [MUREPAVADIN] (cyclo(TWI[Dab][Orn][dDab][Dab]W[Dab][Dab]AS[dP]P)), the minimal inhibitory concentration (MIC) in the series with Pseudomonas aeruginosa [7] turned out to be 0.008 µg/mL (≈ 0.00515 µM).

For the compound H-TNLYMLPKWDIP-NH2, the figures for the Kd in series [8] and in series [9] were 20 µM and 6 µM, respectively. With `CC[C@H](C)[C@H](NC(=O)[C@@H](N)Cc1ccccc1)C(=O)N[C@@H](CCCNC(=N)N)C(=O)N[C@@H](CC(C)C)C(N)=O` (H-FIRL-NH2), the Activity in the series on Pseudomonas aeruginosa [10] was 1 log10CFU/ml.

For `CCC[C@@H]1OC(=O)[C@@H](C)C[C@H](C)CCCCC(=O)CCC[C@@H](CC)CC/C=C(\COC)CC[C@@H](O)[C@@H](O)C[C@H](O)CNC1=O`, in the series on Escherichia coli [11], the MIC turned out to be 3.12 µg/mL (≈ 4.98 µM). Regarding `Sc1ccccc1C1=NCCCN1`, the MIC in the series on Escherichia coli [1] came to 16 µg/mL (≈ 83.2 µM); against Escherichia coli [2], 8 µg/mL (≈ 41.6 µM). Regarding `CCC[C@@H]1OC(=O)[C@@H](C)C[C@H](C)CCCCC(=O)CCC[C@@H](CC)/C=C/C=C(\COC)CC[C@@H](O)[C@@H](O)C[C@H](O)CNC1=O`, in the series on Escherichia coli [11], the MIC was 6.25 µg/mL (≈ 10 µM).

On to `CC(C)(C)c1nc(-c2ccc3c(c2)OCCO3)c(-c2ccncc2)[nH]1`, for which the MIC worked out at 0.25 µg/mL (≈ 0.745 µM) with Escherichia coli [6], 32 µg/mL (≈ 95.4 µM) against Escherichia coli [1] and 4 µg/mL in the series with Escherichia coli [12]. For `CC[C@H](C)[C@@H]1NC(=O)[C@H](Cc2c[nH]c3ccccc23)NC(=O)[C@H]([C@@H](C)O)NC(=O)[C@@H]2CCCN2C(=O)[C@H]2CCCN2C(=O)[C@H](CCN)NC(=O)[C@H](C)NC(=O)[C@H](CCN)NC(=O)[C@H](CCN)NC(=O)[C@H](Cc2c[nH]c3ccccc23)NC(=O)[C@H](CCN)NC(=O)[C@@H](CCN)NC(=O)[C@H](CCCCN)NC(=O)[C@H](CCN)NC1=O` (cyclo(TWI[Dab]K[dDab][Dab]W[Dab][Dab]A[Dab][dP]P)), the Activity in series [13] is more than 100 µg/mL. In the case of `Fc1ccc(COc2cccc(-c3n[nH]cc3-c3ccncc3)c2)cc1`, the minimal inhibitory concentration (MIC) is less than 0.063 µg/mL against Escherichia coli [6], 8 µg/mL (≈ 23.2 µM) against Escherichia coli [1] and 16 µg/mL with Escherichia coli [12]. As for `CCCCCCCCCCCCCCCC(=O)N(C)[C@H](CO)C(=O)N[C@H](C)C(=O)NCC(=O)N(C)[C@@H]1C(=O)N[C@@H](C)C(=O)N[C@@H](C(=O)O)Cc2ccc(O)c(c2)-c2cc1ccc2O`, the minimum inhibitory concentration (MIC) is 0.25 µg/mL (≈ 0.284 µM) in [14]; 4 µg/mL (≈ 4.54 µM) with Escherichia coli [15]; 8 µg/mL (≈ 9.08 µM) in the series with Pseudomonas aeruginosa [16]; 8 µg/mL (≈ 9.08 µM) in [17]; 2 µg/mL (≈ 2.27 µM) in series [18]. Also, the Ratio in [19] is 32.

In turn, `CCCC(C)/C=C(/C)C(=O)OC(CCCCCCC/C=C/C(=O)NCCC(=O)NC(CS(=O)(=O)O)C(=O)N(C)C1C(=O)NC(C)C(=O)NC(C(=O)O)Cc2ccc(OS(=O)(=O)O)c(c2)-c2cc1cc(OS(=O)(=O)O)c2OC1O[C@H](C)[C@@H](O)[C@H](O)[C@@H]1O)CCC(C)C` (some centres not stated) showed a minimum inhibitory concentration (MIC) with Staphylococcus aureus [20] of 16 to 128 µg/mL (≈ 11.9 to 94.9 µM).

For the compound `CC(C)(N)[C@H](NC(=O)c1ccc(C#CC#C[C@@H]2C[C@H]2CO)cc1)C(=O)NO` [ACHN-975], the MIC in the series on Pseudomonas aeruginosa [7] is 0.25 µg/mL (≈ 0.677 µM). The compound `CCCCCCCC(=O)N[C@H](C(=O)N[C@@H](CO)C(=O)N[C@H]1CCNC(=O)[C@H]([C@@H](C)O)NC(=O)[C@H](CCN)NC(=O)[C@H](CCN)NC(=O)[C@H](CC(C)C)NC(=O)[C@@H](Cc2ccccc2)NC(=O)[C@H](CCN)NC1=O)[C@@H](C)O` (Octanoyl-TS[Dab][Dab][dF]L[Dab][Dab]T; lactam 3-C) registered an MIC90 in the series with Escherichia coli [21] of 1 µg/mL (≈ 0.929 µM).

In the series with Staphylococcus aureus [20], `CC(C)=CCc1ccc(Cl)c2[nH]cc(CC3NC(=O)C(Cc4c[nH]c5c(Cl)cccc45)NC(=O)C4CCCN4C(=O)C(CS(=O)(=O)O)NC(=O)C(NC(=O)C(NC(=O)C(C)NC(=O)CC(=O)O)C(C)C)COC(=O)C(CO)NC(=O)C(CC(C)C)NC(=O)C(C(C)C)NC3=O)c12` (configuration not stated) (Malonyl-AVS[Cya]P[Trp(7-Cl)][X1]VLS; ester 3-C; configuration not given here) came in with an MIC of 0.5 to 128 µg/mL (≈ 0.357 to 91.4 µM). Turning to `C[C@@H](O)[C@H](NC(=O)c1ccc(C#Cc2ccc(CN3CCOCC3)cc2)cc1)C(=O)NO`, the minimal inhibitory concentration (MIC) in the series on Pseudomonas aeruginosa [22] was determined as 1 µg/mL (≈ 2.29 µM). `CCCCCCCCCC[C@H]1OC(=O)CNC(=O)[C@H]([C@@H](C)O)NC(=O)[C@H](CO)NC(=O)[C@H]([C@H](C)CC)NC(=O)[C@H](CC(C)C)N(C)C(=O)[C@@H]1C` showed an MIC in the series on Escherichia coli [11] of 1.56 µg/mL (≈ 2.19 µM). `CC[C@H](C)[C@@H]1NC(=O)[C@H](CCCNC(=N)N)NC(=O)[C@H](Cc2cc3ccccc3[nH]2)NC(=O)[C@@H]2CCCN2C(=O)[C@H]2CCCN2C(=O)[C@H](CCCNC(=N)N)NC(=O)[C@H](CCCNC(=N)N)NC(=O)[C@H](CC(C)C)NC(=O)[C@H](CCCNC(=N)N)NC(=O)[C@H](CCCCN)NC(=O)[C@H](Cc2c[nH]c3ccccc23)NC(=O)[C@@H](CCCNC(=N)N)NC(=O)[C@H]([C@@H](C)CC)NC(=O)[C@H](CCCNC(=N)N)NC1=O`: the MIC against Acinetobacter baumannii was determined as 1 µg/mL (≈ 0.507 µM); with Pseudomonas aeruginosa [23] it was 4 µg/mL (≈ 2.03 µM); against Staphylococcus aureus [24], 2 µg/mL (≈ 1.01 µM); against Escherichia coli [1], 0.25 µg/mL (≈ 0.127 µM).

Broadly, the MIC is the lowest concentration found to suppress growth. As usually defined, the Kd is the free concentration of one partner at which half of the binding sites on the other are occupied at equilibrium, for simple one-to-one binding. A higher Kd goes with weaker binding. A word on the MIC90: it is the lowest concentration that inhibits either 90% of growth or 90% of the strains tested, depending on the study. A lower MIC90 goes with greater potency.

(Values after ChEMBL document CHEMBL3864123, “Drug discovery strategies to outer membrane targets in Gram-negative pathogens” (Bioorg Med Chem, 2016).)
